Experimental data taken from patent US20240383954A1, “PEPTIDE INHIBITORS OF INTERLEUKIN-23 RECEPTOR AND THEIR USE TO TREAT INFLAMMATORY DISEASES” (Janssen Biotech, Inc., priority 2020, published 2024).
Positions of bridges follow the written chain, without caps; N, C: chain ends. Non-standard residues stand in square brackets, D forms with d. Residues, ends and D or L forms follow the SMILES beside them. Trp(7-Me) = Cc1cccc2c(C[C@H](N)C(=O)O)c[nH]c12; 2Nal = N[C@@H](Cc1ccc2ccccc2c1)C(=O)O; AEF = NCCOc1ccc(C[C@H](N)C(=O)O)cc1; Cit = NC(=O)NCCC[C@H](N)C(=O)O; αMeL = CC(C)C[C@](C)(N)C(=O)O; Pen = CC(C)(S)[C@H](N)C(=O)O; Thp = NC1(C(=O)O)CCOCC1

Target: IL-23R (Homo sapiens, UniProt Q5VWK5)
Assay: cell-based
Conditions: PBMC pSTAT3 IC50 (nM), PBMCs from healthy donors, IL-23 5 ng/mL, 30 minutes, phosphorylated STAT3
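Also: cryopreserved PBMCs stimulated at 37 °C in 5% CO2, then lysed, with phosphorylated STAT3 quantified in lysates using a phospho-STAT panel kit.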

Sequence of IL-23R (Q5VWK5 24-629): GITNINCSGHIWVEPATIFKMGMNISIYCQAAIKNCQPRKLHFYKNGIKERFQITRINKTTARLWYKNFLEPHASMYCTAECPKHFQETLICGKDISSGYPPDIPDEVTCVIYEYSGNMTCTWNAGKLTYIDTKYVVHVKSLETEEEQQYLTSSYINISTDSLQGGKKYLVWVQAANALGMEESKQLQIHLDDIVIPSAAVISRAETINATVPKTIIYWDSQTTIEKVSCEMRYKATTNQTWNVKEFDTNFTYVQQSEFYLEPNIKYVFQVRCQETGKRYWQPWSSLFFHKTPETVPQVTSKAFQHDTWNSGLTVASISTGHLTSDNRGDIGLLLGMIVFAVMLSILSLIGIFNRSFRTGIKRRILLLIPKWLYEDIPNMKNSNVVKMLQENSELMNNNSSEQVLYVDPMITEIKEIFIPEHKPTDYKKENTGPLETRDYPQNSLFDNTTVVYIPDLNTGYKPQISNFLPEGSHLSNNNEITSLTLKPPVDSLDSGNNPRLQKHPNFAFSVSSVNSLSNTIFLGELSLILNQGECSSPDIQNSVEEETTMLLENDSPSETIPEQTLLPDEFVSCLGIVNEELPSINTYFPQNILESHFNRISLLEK

Q: `COc1ccc(C[C@H](NC(=O)[C@@H]2CSCC[C@H](NC(=O)[C@@H](CCCNC(=N)N)NC(=O)Cn3cc(CCCF)nn3)C(=O)N[C@@H](CCC(N)=O)C(=O)N[C@@H]([C@@H](C)O)C(=O)N[C@@H](Cc3c[nH]c4ccccc34)C(=O)N[C@@H](CCC(N)=O)C(=O)N2)C(=O)N[C@@H](Cc2ccc3ccccc3c2)C(=O)NC2(C(=O)N[C@@H](CCC(=O)O)C(=O)N[C@@H](CC(N)=O)C(=O)NC3(C(N)=O)CCOCC3)CCOCC2)cc1` [Compound 25, FPrpTriazoleMe_Acid-[(D)Arg]-[Abu]-Q-T-W-Q-[Cys]-[Phe(4-OMe)]-[2-Nal]-[THP]-E-N-[THP]-NH2] was tested. Which IC50 did it give?
A: The IC50 was 21 nM.

Q: How did the IC50 turn out when `CCC(=O)N[C@H](CCCNC(=N)N)C(=O)N[C@@H]1C(=O)N[C@@H](CCC(N)=O)C(=O)N[C@@H]([C@@H](C)O)C(=O)N[C@@H](Cc2c[nH]c3ccccc23)C(=O)N[C@@H](CCC(N)=O)C(=O)N[C@H](C(=O)N[C@@H](Cc2ccc(OCCN)cc2)C(=O)N[C@@H](Cc2ccc3ccccc3c2)C(=O)NC2(C(=O)N[C@@H](CCCCNC(=O)C(C)(C)C)C(=O)N[C@@H](CC(N)=O)C(=O)NC3(C(N)=O)CCOCC3)CCOCC2)C(C)(C)SSC1(C)C` [Compound 7, [Propionic_acid]-[(D)Arg]-[Pen]-Q-T-W-Q-[Pen]-Phe[4-(2-aminoethoxy)]-[2-Nal]-[THP]-[Lys(COtBu)]-N-[THP]-NH2] was run?
A: Its IC50 is 8.6 nM.

Q: With `CC(=O)NCCCC[C@@H]1NC(=O)[C@H](Cc2c[nH]c3c(C)cccc23)NC(=O)[C@H]([C@@H](C)O)NC(=O)[C@H](CC(N)=O)NC(=O)[C@@H](NC(C)=O)C(C)(C)SSC(C)(C)[C@@H](C(=O)N[C@@H](Cc2ccc(OCCN)cc2)C(=O)N[C@@H](Cc2ccc3ccccc3c2)C(=O)NC2(C(=O)N[C@@H](CCCCNC(=O)C(C)(C)C)C(=O)N[C@@H](CC(N)=O)C(=O)N[C@@](C)(Cc3ccccc3)C(N)=O)CCOCC2)NC1=O` [Compound 139, Ac-[Pen]-N-T-[W(7-Me)]-[Lys(Ac)]-[Pen]-Phe[4-(2-aminoethoxy)]-[2-Nal]-[THP]-[Lys(COtBu)]-N-[a-MePhe]-NH2] as the compound, how does the IC50 read?
A: The IC50 was 6.6 nM.

Q: Which IC50 does the source give for `CC(=O)NCCCC[C@@H]1NC(=O)[C@H](Cc2c[nH]c3c(C)cccc23)NC(=O)[C@H]([C@@H](C)O)NC(=O)[C@H](CC(N)=O)NC(=O)[C@@H](NC(C)=O)C(C)(C)SSC(C)(C)[C@@H](C(=O)N[C@@H](Cc2ccc(OCCN)cc2)C(=O)N[C@@H](Cc2ccc3ccccc3c2)C(=O)N[C@@](C)(CCCCN)C(=O)N[C@@H](CCCCNC(C)=O)C(=O)N[C@@H](CC(N)=O)C(=O)N[C@@](C)(Cc2ccccc2)C(=O)N[C@H](Cc2ccc(N)cc2)C(N)=O)NC1=O` [Compound 114, Ac-[Pen]-N-T-[W(7-Me)]-[Lys(Ac)]-[Pen]-Phe[4-(2-aminoethoxy)]-[2-Nal]-[a-MeLys]-[Lys(Ac)]-N-[a-MePhe]-(D)Phe[4-NH2]-NH2] here?
A: Its IC50 is 12 nM.

Q: How did the IC50 turn out when `CC(=O)NCCCC[C@@H]1NC(=O)[C@H](Cc2c[nH]c3c(C)cccc23)NC(=O)[C@H]([C@@H](C)O)NC(=O)[C@H](CC(N)=O)NC(=O)[C@@H](NC(C)=O)C(C)(C)SSC(C)(C)[C@@H](C(=O)N[C@@H](Cc2ccc(OCCN)cc2)C(=O)N[C@@H](Cc2ccc3ccccc3c2)C(=O)N[C@@](C)(CCCCN)C(=O)N[C@@H](CCCCNC(C)=O)C(=O)N[C@@H](CC(N)=O)C(=O)N[C@H](C(N)=O)[C@H](C)c2ccccc2)NC1=O` [Compound 312, MeCO-Pen-N-T-7MeTrp-K(Ac)-Pen-AEF-2Nal-aMeK-K(Ac)-N-bMePhe(S,R)-CONH2] was run?
A: Its IC50 is 90 nM.

Q: How did the IC50 turn out when `CC(=O)NCCCC[C@H](NC(=O)[C@](C)(CCCCN)NC(=O)[C@H](Cc1ccc2ccccc2c1)NC(=O)[C@H](Cc1ccc(OCCN)cc1)NC(=O)[C@]1(C)CSSC[C@H](NC(C)=O)C(=O)N[C@@H](CC(N)=O)C(=O)N[C@@H]([C@@H](C)O)C(=O)N[C@@H](Cc2c[nH]c3c(C)cccc23)C(=O)N[C@@H](CCC(N)=O)C(=O)N1)C(=O)N[C@@H](CC(N)=O)C(=O)NC1(C(N)=O)CCOCC1` [Compound 120, Ac-[Cys]-N-T-[W(7-Me)]-Q-[aMeCys]-Phe[4-(2-aminoethoxy)]-[2-Nal]-[a-MeLys]-[Lys(Ac)]-N-[THP]-NH2] was run?
A: Its IC50 is 4.9 nM.

Q: `C[C@@H](O)[C@@H]1NC(=O)[C@H](CCC(N)=O)NC(=O)[C@@H](NC(=O)[C@H](N)CCCNC(=N)N)CCSC[C@@H](C(=O)N[C@@H](Cc2ccc(OCCNC(=O)OC(C)(C)C)cc2)C(=O)N[C@@H](Cc2ccc3ccccc3c2)C(=O)NC2(C(=O)N[C@@H](CCC(=O)O)C(=O)N[C@@H](CC(N)=O)C(=O)NC3(C(N)=O)CCOCC3)CCOCC2)NC(=O)[C@H](CCC(N)=O)NC(=O)[C@H](Cc2c[nH]c3ccccc23)NC1=O` [Compound 47, [(D)Arg]-[Abu]-Q-T-W-Q-[Cys]-Phe[4-(2-(Boc)aminoethoxy)]-[2-Nal]-[THP]-E-N-[THP]-NH2] was tested. Which IC50 did it give?
A: The IC50 was 5.3 nM.

Q: How did the IC50 turn out when `CC(=O)NCCCC[C@H](NC(=O)[C@](C)(CC(C)C)NC(=O)[C@H](Cc1ccc2ccccc2c1)NC(=O)[C@H](Cc1ccc(OCCN)cc1)NC(=O)[C@H]1NC(=O)[C@H](CCCNC(N)=O)NC(=O)[C@H](Cc2c[nH]c3c(C)cccc23)NC(=O)[C@H]([C@@H](C)O)NC(=O)[C@H](CC(N)=O)NC(=O)[C@@H](NC(C)=O)C(C)(C)SSC1(C)C)C(=O)N[C@@H](CC(N)=O)C(=O)NC1(C(N)=O)CCOCC1` [Compound 108, Ac-[Pen]-N-T-[W(7-Me)]-[Cit]-[Pen]-Phe[4-(2-aminoethoxy)]-[2-Nal]-[aMeLeu]-[Lys(Ac)]-N-[THP]-NH2] (Ac-[Pen]NT[Trp(7-Me)][Cit][Pen][AEF][2Nal][αMeL]K(Ac)N[Thp]-NH2; disulfide 1-6) was run?
A: Its IC50 is 5.1 nM.

Q: `CC(=O)NCCCC[C@@H]1NC(=O)[C@H](Cc2c[nH]c3c(C)cccc23)NC(=O)[C@H]([C@@H](C)O)NC(=O)[C@H](CC(N)=O)NC(=O)[C@@H](NC(C)=O)C(C)(C)SSC(C)(C)[C@@H](C(=O)N[C@@H](Cc2ccc(OCCN)cc2)C(=O)N[C@@H](Cc2ccc3ccccc3c2)C(=O)N[C@@](C)(CCCCN)C(=O)N[C@@H](CCCCNC(C)=O)C(=O)N[C@@H](CC(N)=O)C(=O)NC2(C(=O)N[C@H](Cc3ccc(O)cc3)C(N)=O)CCOCC2)NC1=O` [Compound 107, Ac-[Pen]-N-T-[W(7-Me)]-[Lys(Ac)]-[Pen]-Phe[4-(2-aminoethoxy)]-[2-Nal]-[a-MeLys]-[Lys(Ac)]-N-[THP]-[(D)Tyr]-NH2] was tested. Which IC50 did it give?
A: Its IC50 is 11 nM.

Q: `CC(=O)NCCCC[C@@H]1NC(=O)[C@H](Cc2c[nH]c3c(C)cccc23)NC(=O)[C@H]([C@@H](C)O)NC(=O)[C@H](CC(N)=O)NC(=O)[C@@H](NC(C)=O)C(C)(C)SSC(C)(C)[C@@H](C(=O)N[C@@H](Cc2ccc(OCCN)cc2)C(=O)N[C@@H](Cc2ccc3ccccc3c2)C(=O)NC2(C(=O)N[C@@H](CCCCNC(=O)C(C)(C)C)C(=O)N[C@@H](CC(N)=O)C(=O)NC3(C(N)=O)CCOCC3)CCOCC2)NC1=O` [Compound 141, Ac-[Pen]-N-T-[W(7-Me)]-[Lys(Ac)]-[Pen]-Phe[4-(2-aminoethoxy)]-[2-Nal]-[THP]-[Lys(COtBu)]-N-[THP]-NH2] was tested. Which IC50 did it give?
A: The IC50 was 3.7 nM.

Q: For `CC(=O)N[C@H](CCCNC(=N)N)C(=O)N[C@H]1CCSC[C@@H](C(=O)N[C@@H](Cc2ccc(OCCN)cc2)C(=O)N[C@@H](Cc2ccc3ccccc3c2)C(=O)NC2(C(=O)N[C@@](C)(CCC(=O)O)C(=O)N[C@@H](CC(N)=O)C(=O)N[C@@](C)(Cc3c[nH]c4ccccc34)C(N)=O)CCOCC2)NC(=O)[C@H](CCC(N)=O)NC(=O)[C@H](Cc2c[nH]c3ccccc23)NC(=O)[C@H]([C@@H](C)O)NC(=O)[C@H](CCC(N)=O)NC1=O` [Compound 31, Ac-[(D)Arg]-[Abu]-Q-T-W-Q-[Cys]-Phe[4-(2-aminoethoxy)]-[2-Nal]-[THP]-[aMeGlu]-N-ameW-NH2], which IC50 is on record?
A: Its IC50 is 16 nM.
